Experiment [1] deals with MCF-7 cells. Description: SiNW-ECIS electrical impedance/capacitance response of MCF-7 cells treated with antitubulin drugs. The experiment is classed as cell-based, human. To be noted: PTX 0.1 nano-moles per liter; for changes in membrane impedance vs control sample (normalized, mean) / variations in capacitance of the sensor vs control sample (normalized): MCF-7, 2 hours (T1) after drug incubation; for changes in membrane impedance vs control sample (normalized, mean) / variations in capacitance of the sensor vs control sample (normalized) / change in norm of impedance of treated cells, T1 vs T2 / changes in electrical impedance with respect to control sample / norm of capacitive changes, control sample more than drug value: ABZ 2.1 nano-moles per liter; for changes in electrical impedance with respect to control sample / norm of capacitive changes, control sample more than drug value: MCF-7, 6 hours (T2) after drug incubation. Here is the method:
In this example, the diagnostic response of cells membrane to extremely low dose of antitubulin drugs is investigated. Initially, MCF-7 cell lines, isolated from grade I human breast tumors, were obtained from the National Cell Bank of Iran (Pasteur Institute). Then, cells were maintained in a CO2 incubator (37° C., 5% CO2) in RPMI-1640 medium supplemented with 5% fetal bovine serum, and 1% penicillin/streptomycin. The fresh medium was replaced every other day. Then, the cultured cells were dropped on the surface of the SiNW-ECIS, designed and fabricated pursuant to teachings of the present application. Prior to each experiment, cells were trypsinized to be detached from the substrate and resuspended on the SiNW surface. To minimize the effect of trypsinization, the procedure may last for less than 4 minutes at room temperature of about 20° C. The samples were held in an incubator for about 4 hours to achieve cells attachment on the SiNWs. Thereafter, the ABZ drug with low concentrations of about 2.1 nano-moles per liter and the PTX drug with low concentrations of about 0.1 nano-moles per liter were added to individual samples. Finally, the signal recording and biological assays were investigated about 2 hours and 6 hours after the drug treatment (6 hours and 10 hours after the beginning of culturing process).
Referring to FIGS. 12A-12G, comparative normalized diagrams of impedance (designated by ΔZ % and represented by solid black lines) and capacitance changes (designated by ΔC % and represented by dashed grey lines) are illustrated for MCF-7 cells seeded on SiNW electrodes after treating by 2.1 nano-moles per liter of ABZ and 0.1 nano-moles per liter of PTX. The time interval between the drug incubation and the signal extraction are 2 hours (designated by T1) and 6 hours (designated by T2). In addition, the same diagrams are plotted for control sample prepared with no drug treatment stage.
According to the method described in the present example, the samples were maintained in an incubator so that the signal extraction was repeated 10 hours after cells dropping (6 hours after drug incubation for treated samples) to monitor the time evolution of drug induced MT polymerization/depolymerization on bioelectrical response of the membrane.

In experiment [2] the test system is tubulin assemblies of MCF-7 cells. Description: Confocal microscopy of tubulin assemblies of MCF-7 cells. The experiment is classed as cell-based, human. The following applies: ABZ 2.1 nano-moles per liter, PTX 0.1 nano-moles per liter. On the procedure: In addition, an un-treated control sample was prepared as reference for comparison. Then, samples were washed with PBS and permeabilized with microtubule stabilizing buffer [80 mM PIPES-KOH (pH 6.8), 5 mM EGTA, and 1 mM MgCl2 containing 0.5% Triton X-100] for 5 min at room temperature before being fixed with chilled absolute methanol for 10 min at −20° C. Thereafter, the fixed cells were washed and incubated with monoclonal mouse anti-α-tubulin antibody (Sigma Co.) for 1 hour at room temperature followed by incubation with FITC-conjugated antimouse IgG antibody (Santa Cruz Biotechnology). The stained cells were mounted with Vectashield (Vector Laboratories, Burlingame, Calif.) and observed by confocal microscopy.

[3] abbreviates: MCF-7, 2 hours vs 6 hours after drug incubation.

Molecules are shown by their SMILES.

For `CCCSc1ccc2nc(NC(=O)OC)[nH]c2c1` [ABZ, Albendazole], in experiment [1], the “changes in membrane impedance vs control sample (normalized, mean)” value amounted to 25%; the “variations in capacitance of the sensor vs control sample (normalized)” value is given as 70%; the “changes in electrical impedance with respect to control sample” value is on record as “about 90%”; the “norm of capacitive changes, control sample more than drug value” is “about 90%”. Moreover, the “change in norm of impedance of treated cells, T1 vs T2” value in experiment [1] (setting [3]) was “about 60%”. In experiment [2] (MCF-7, 2 hours after treatment), the “spindle / microtubule morphology in confocal image” value (shortened to “spindle / microtubule morphology”) is “abnormally reduced numbers of spindles or monopolar (monoaster) spindles”. The “spindle / microtubule morphology” value in experiment [2] (MCF-7, 6 hours after treatment) was “still the monoastered MTs are observable”.

On to `CC(=O)O[C@H]1C(=O)[C@@]2(C)[C@H]([C@H](OC(=O)c3ccccc3)[C@]3(O)C[C@H](OC(=O)[C@H](O)[C@@H](NC(=O)c4ccccc4)c4ccccc4)C(C)=C1C3(C)C)[C@]1(OC(C)=O)CO[C@@H]1C[C@@H]2O` [PTX, Paclitaxel], for which, in experiment [1], the “changes in membrane impedance vs control sample (normalized, mean)” value is given as “about 50%”; the “variations in capacitance of the sensor vs control sample (normalized)” value was “about 60%”; the “changes in electrical impedance with respect to control sample” value is listed as “about 30%”; the “norm of capacitive changes, control sample more than drug value” is reported as about 75%. In experiment [1] (setting [3]), the “change in norm of impedance of treated cells, T1 vs T2” value is 15% and the “time dependent variation in capacitive behavior, T1 vs T2” value is recorded as “about 85%”. For the same compound, in experiment [2] (MCF-7, 2 hours after treatment), the “spindle / microtubule morphology” value was “aggregated spindles”. In addition, the “spindle / microtubule morphology” value in experiment [2] (MCF-7, 6 hours after treatment) is on record as “increased aggregation in MT spindles”.

Source of the values: patent US20160178613A1, “Electrical Cell-substrate Impedance Sensor (ECIS)” (priority 2015, published 2016).
